12 compounds from US20250206729A1, “DUAL RAF AND TUBULIN INHIBITORS AND METHODS OF USE THEREOF” (Deciphera Pharmaceuticals, LLC, priority 2023, published 2025) can be followed below.

A value given as a limit tells only on which side of the number the result lay.

One assay concerns Pa16c cells. The assay can be described thus: Pa16c cell proliferation assay. The format is cell-based. Conditions: 67 to 72 h incubation, resazurin; read-out: Pa16c (inhibition of cell proliferation, IC50). As for the experimental part:
Pa16c cells are obtained from Dr. Channing Der, University of North Carolina at Chapel Hill. Briefly, cells are grown in Dulbecco's Modified Eagle Medium supplemented with 10% characterized fetal bovine serum (Invitrogen, Carlsbad, CA) and 1% Penicillin/Streptomycin/L-Glutamine at 37° C., 5% CO2, and 95% humidity. Cells are expanded until reaching 70-95% confluency at which point they are sub-cultured or harvested for assay use. A serial dilution of test compound is dispensed into a 384-well black clear bottom plate in triplicate. 750 cells are added per well in 50 μL complete growth medium in the 384-well plate. Plates are incubated for 67 to 72 h at 37° C., 5% CO2, and 95% humidity. At the end of the incubation, 40 μL of a […] solution of resazurin (Sigma, St. Louis, MO) in PBS is added to each well of the plate and plates are incubated for an additional 18 to 24 h at 37° C., 5% CO2, and 95% humidity. Plates are read on a Synergy2 or equivalent reader (Biotek, Winooski, VT) using an excitation of 540 nm and an emission of 600 nm. Data is analyzed using Prism software (Graphpad, San Diego, CA) to calculate IC50 values.

Assay [1] deals with T1, B-Raf kinase (SEQ ID NO: 1) (Homo sapiens, UniProt P15056).
T1 construct: GST (N); purchased Sigma
T1 sequence (P15056 416-766): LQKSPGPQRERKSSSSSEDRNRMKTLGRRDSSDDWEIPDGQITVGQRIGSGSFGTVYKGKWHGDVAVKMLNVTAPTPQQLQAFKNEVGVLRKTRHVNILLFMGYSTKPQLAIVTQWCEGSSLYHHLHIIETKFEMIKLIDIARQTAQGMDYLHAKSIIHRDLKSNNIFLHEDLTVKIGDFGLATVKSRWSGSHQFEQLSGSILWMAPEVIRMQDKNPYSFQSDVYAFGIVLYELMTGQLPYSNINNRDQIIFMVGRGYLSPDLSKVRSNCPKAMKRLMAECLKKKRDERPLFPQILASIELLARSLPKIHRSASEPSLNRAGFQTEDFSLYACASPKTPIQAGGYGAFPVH
As to the kind of experiment: Biochemical assay for B-Raf (coupled pyruvate kinase/lactate dehydrogenase). Conditions: 1 mM ATP; read-out: BRAF (inhibition of biochemical activity, IC50).

Assay [2] addresses T2, C-Raf kinase (SEQ ID NO: 2) (Homo sapiens, UniProt P04049, Y340D/Y341D).
T2 construct: C-Raf residues 306-end; Y340D, Y341D with N-; GST (N); purchased Sigma
As to the kind of experiment: Biochemical assay for C-Raf (coupled pyruvate kinase/lactate dehydrogenase). Conditions: 1 mM ATP; read-out: CRAF (inhibition of biochemical activity, IC50).

A further assay deals with HCT-116 cells. As to the kind of experiment: HCT-116 cell proliferation assay. It counts as cell-based. Conditions: Homo sapiens, HCT-116; 67 to 72 h incubation, resazurin; read-out: HCT-116 (inhibition of cell proliferation, IC50). As for the experimental part:
HCT-116 cells (catalog #CCL-247) are obtained from the American Type Culture Collect (ATCC, Manassas, VA). Briefly, cells are grown in McCoy's 5A supplemented with 10% characterized fetal bovine serum (Invitrogen, Carlsbad, CA) and 1% Penicillin/Streptomycin/L-Glutamine at 37° C., 5% CO2, and 95% humidity. Cells are expanded until reaching 70-95% confluency at which point they are sub-cultured or harvested for assay use. A serial dilution of test compound is dispensed into a 384-well black clear bottom plate in triplicate. 375 cells are added per well in 50 μL complete growth medium in the 384-well plate. Plates are incubated for 67 to 72 h at 37° C., 5% CO2, and 95% humidity. At the end of the incubation, 40 μL of a […] solution of resazurin (Sigma, St. Louis, MO) in PBS is added to each well of the plate and plates are incubated for an additional 4 to 5 h at 37° C., 5% CO2, and 95% humidity. Plates are read on a Synergy2 or equivalent reader (Biotek, Winooski, VT) using an excitation of 540 nm and an emission of 600 nm. Data is analyzed using Prism software (Graphpad, San Diego, CA) to calculate IC50 values.
For orientation: Resazurin is reduced to fluorescent resorufin, in cell work by metabolically active cells.

In the next assay the test system is HPAF-II cells. The assay can be described thus: HPAF-II cell proliferation assay. It counts as cell-based. Conditions: Homo sapiens, HPAF-II; 115 to 120 h incubation, resazurin; read-out: HPAF-II (inhibition of cell proliferation, IC50). As for the experimental part: HPAF-II cells (catalog #CRL-1997) are obtained from the American Type Culture Collect (ATCC, Manassas, VA). Briefly, cells are grown in Minimum Essential Media supplemented with 10% characterized fetal bovine serum (Invitrogen, Carlsbad, CA) and 1% Penicillin/Streptomycin/L-Glutamine at 37° C., 5% CO2, and 95% humidity. Cells are expanded until reaching 70-95% confluency at which point they are sub-cultured or harvested for assay use. A serial dilution of test compound is dispensed into a 384-well black clear bottom plate in triplicate. 750 cells are added per well in 50 μL complete growth medium in the 384-well plate. Plates are incubated for 115 to 120 h at 37° C., 5% CO2, and 95% humidity. At the end of the incubation, 40 μL of a […] solution of resazurin (Sigma, St. Louis, MO) in PBS is added to each well of the plate and plates are incubated for an additional 18 to 24 h at 37° C., 5% CO2, and 95% humidity. Plates are read on a Synergy2 or equivalent reader (Biotek, Winooski, VT) using an excitation of 540 nm and an emission of 600 nm. Data is analyzed using Prism software (Graphpad, San Diego, CA) to calculate IC50 values.

The test system of the next assay is MiaPaca-2 cells. The assay can be described thus: MiaPaca-2 cell proliferation assay. It counts as cell-based. Conditions: Homo sapiens, MIA PaCa-2; 67-72 h incubation, resazurin; read-out: MiaPaca-2 (inhibition of cell proliferation, IC50). As for the experimental part:
Miapaca-2 cells (catalog #CRL-1420) are obtained from the American Type Culture Collect (ATTC, Manassas, VA). Briefly, cells were grown in DMEM supplemented with 10% characterized fetal bovine serum (Invitrogen, Carlsbad, CA), 2.5% New Zealand sourced horse serum and 1% Penicillin/Streptomycin/L-Glutamine at 37° C., 5% CO2, and 95% humidity. Cells are expanded until reaching 70-95% confluency at which point they are sub-cultured or harvested for assay use. A serial dilution of test compound is dispensed into a 384-well black clear bottom plate in triplicate. Seven hundred fifty cells are added per well in 50 μL complete growth medium in the 384-well plate. Plates are incubated for 67-72 h at 37° C., 5% CO2, and 95% humidity. At the end of the incubation, 10 μL of a 440 μM solution of resazurin (Sigma, St. Louis, MO) in PBS is added to each well of the plate and plates are incubated for an additional 5-6 h at 37° C., 5% CO2, and 95% humidity. Plates are read on a Synergy2 or equivalent reader (Biotek, Winooski VT) using an excitation of 540 nm and an emission of 600 nm. Data is analyzed using Prism software (GraphPad, San Diego, CA) to calculate IC50 values.

T2 sequence (P04049 307-648 Y340D/Y341D): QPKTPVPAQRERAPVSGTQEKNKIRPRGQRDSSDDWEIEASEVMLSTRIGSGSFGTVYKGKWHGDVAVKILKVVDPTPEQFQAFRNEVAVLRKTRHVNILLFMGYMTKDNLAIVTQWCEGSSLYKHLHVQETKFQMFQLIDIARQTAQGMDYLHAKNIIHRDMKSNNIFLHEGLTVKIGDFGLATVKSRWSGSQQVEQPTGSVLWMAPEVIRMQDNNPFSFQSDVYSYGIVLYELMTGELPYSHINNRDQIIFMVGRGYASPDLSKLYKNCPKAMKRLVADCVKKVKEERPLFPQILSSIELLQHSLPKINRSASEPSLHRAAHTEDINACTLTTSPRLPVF

Turning to `Cc1ccc(NC(=O)c2cc(Cl)cnn2)cc1-c1cc(N2CCOCC2)ncn1` [Example 74], the IC50 (in the assay on Pa16c cells; in assay [1]; in assay [2]; in the assay on HCT-116 cells; with HPAF-II cells; in the assay on MiaPaca-2 cells) was 1000 to 10000 nM each time.

Take `Cc1ccc(NC(=O)c2cc(Cl)cnn2)cc1-c1ccnc(N2CCOCC2)n1` [Example 71]: the IC50 with Pa16c cells was 1000 to 10000 nM; in assay [1], 1000 to 10000 nM; in assay [2], 1000 to 10000 nM; in the assay with HCT-116 cells, 1000 to 10000 nM; in the assay with HPAF-II cells it was 1000 to 10000 nM; with MiaPaca-2 cells, 100 to 500 nM.

As for `Cc1ccc(NC(=O)c2cc(C#N)cnn2)cc1-c1cc(N[C@H](C)CO)nc(N2CCOCC2)c1` [Example 81], the IC50 in the assay with Pa16c cells was less than 100 nM; in assay [1], 500 to 1000 nM; in assay [2], 100 to 500 nM; in the assay with HCT-116 cells, less than 100 nM; with HPAF-II cells it was less than 100 nM; in the assay with MiaPaca-2 cells, less than 100 nM.

On to `Cc1ccc(NC(=O)c2cncc(C3CC3)c2)cc1-c1cc(N[C@H](C)CO)nc(N2CCOCC2)c1` [Example 18], for which the IC50 in the assay on Pa16c cells was 1000 to 10000 nM; in assay [1], less than 100 nM; in assay [2] it was less than 100 nM; with HCT-116 cells, 100 to 500 nM; with HPAF-II cells it was 100 to 500 nM; in the assay with MiaPaca-2 cells, 100 to 500 nM.

Take `Cc1cc(-c2cc(NC(=O)c3cc(C4CC4)cnn3)ccc2C)cc(N2CCOCC2)n1` [Example 20]: the IC50 is 1000 to 10000 nM in the assay with Pa16c cells; less than 100 nM in assay [1]; less than 100 nM in assay [2]; 100 to 500 nM in the assay with HCT-116 cells; 100 to 500 nM in the assay on HPAF-II cells; 100 to 500 nM with MiaPaca-2 cells.

As for `Cc1ccc(NC(=O)c2cc(C(C)C)cnn2)cc1-c1cncc(N2CCOCC2)n1` [Example 56], the IC50 in the assay with Pa16c cells fell in the range of 1000 to 10000 nM; in assay [1] it was 100 to 500 nM; in assay [2], 100 to 500 nM; with HCT-116 cells, 1000 to 10000 nM; in the assay on HPAF-II cells, 1000 to 10000 nM; in the assay on MiaPaca-2 cells it was 1000 to 10000 nM.

On to `Cc1ccc(NC(=O)c2cc(C(C)C)cnn2)cc1-c1ccnc(N2CCOCC2)c1` [Example 58], for which the IC50 with Pa16c cells was 100 to 500 nM; in assay [1], 100 to 500 nM; in assay [2], less than 100 nM; with HCT-116 cells, 100 to 500 nM; in the assay with HPAF-II cells, 100 to 500 nM; in the assay on MiaPaca-2 cells it was 500 to 1000 nM.

Regarding `Cc1ccc(NC(=O)c2cc(Cl)cnn2)cc1-c1cncc(N2CCOCC2)c1` [Example 77], the IC50 (in the assay on Pa16c cells; in assay [1]; in assay [2]; with HCT-116 cells; in the assay with HPAF-II cells; with MiaPaca-2 cells) was 1000 to 10000 nM each time.

Regarding `Cc1ccc(NC(=O)c2cc(C3CC3)cnn2)cc1-c1cncc(N2CCOCC2)c1` [Example 24], the IC50 with Pa16c cells is 100 to 500 nM; in assay [1], 100 to 500 nM; in assay [2], less than 100 nM; with HCT-116 cells, 100 to 500 nM; with HPAF-II cells, 100 to 500 nM; with MiaPaca-2 cells it was 100 to 500 nM.

Regarding `Cc1ccc(NC(=O)c2cc(C(F)(F)F)cnn2)cc1-c1nc(OCCO)cc(N2CCOCC2)n1` [Example 43], the IC50 with Pa16c cells is 100 to 500 nM; in assay [1] it was 1000 to 10000 nM; in assay [2], 1000 to 10000 nM; in the assay with HCT-116 cells, 100 to 500 nM; in the assay on HPAF-II cells, less than 100 nM; with MiaPaca-2 cells, less than 100 nM.

On to `C=C(C)c1cncc(C(=O)Nc2ccc(C)c(-c3cc(N[C@H](C)CO)nc(N4CCOCC4)c3)c2)n1` [Example 53], for which the IC50 in the assay on Pa16c cells was 1000 to 10000 nM; in assay [1], less than 100 nM; in assay [2], less than 100 nM; in the assay on HCT-116 cells, 1000 to 10000 nM; in the assay on HPAF-II cells it was 1000 to 10000 nM; in the assay on MiaPaca-2 cells, 1000 to 10000 nM.

In the case of `Cc1ccc(NC(=O)c2cc(C(C)C)cnn2)cc1-c1cccc(N2CCOCC2)c1` [Example 76], the IC50 is 1000 to 10000 nM with Pa16c cells; 100 to 500 nM in assay [1]; less than 100 nM in assay [2]; 1000 to 10000 nM in the assay on HCT-116 cells; 1000 to 10000 nM in the assay with HPAF-II cells; 1000 to 10000 nM with MiaPaca-2 cells.
